The test system of this data set is HEK 298 cell line. As to the kind of experiment: MTT viability of HEK cells treated with nanobowls pre-loaded with siRNA and dexamethasone. The settings on record: normalized to untreated control.

Take `C[C@@H]1C[C@H]2[C@@H]3CCC4=CC(=O)C=C[C@]4(C)[C@@]3(F)[C@@H](O)C[C@]2(C)[C@@]1(O)C(=O)CO` [dexamethasone]: the “cell viability (MTT)” value is “cell viability decreased”.

Source of the values: patent US20230398220A1, “SIRNA-NANOBOWL-MEDIATED INTERVENTION OF COVID-19” (THE REGENTS OF THE UNIVERSITY OF CALIFORNIA, priority 2020, published 2023).
